{"source": "patent US10767179B2", "about": "“MicroRNA composition for the treatment of neuroblastoma” (THE BOARD OF REGENTS OF THE UNIVERSITY OF TEXAS SYSTEM, priority 2014, dated 2020)", "key": {"[1]": {"tested_on": "additional neuroblastoma cell lines with different genetic backgrounds", "assay": "Neurite outgrowth in multiple neuroblastoma cell lines", "type": "cell-based", "conditions": "25 nM miRNA mimic, 5 days, among the top 5 miRNAs", "procedure": "FIG. 3A-3G. Characterization of the effect of the top 5 neurite-inducing miRNA mimics on cell differentiation and growth in multiple neuroblastoma cell lines. (A-B) Effects of the identified top 5 miRNA mimics on neurite outgrowth. BE(2)-C cells were transfected with 25 nM miRNA mimics or control for 4 days, and relative neurite lengths were quantified as above. Shown are representative cell images analyzed to define neurite and cell body areas (A) and neurite length quantifications (B). (C) Effects of the 5 miRNA mimics on expression of differentiation markers. BE(2)-C cells were transfected with 25 nM of the indicated miRNA mimics or control, and proteins levels were examined after 4 days. (D) Effects of the 5 miRNA mimics on cell proliferation rate. (E) Effect of the 5 miRNAs on neurite outgrowth in multiple cell lines. Cells were transfected with 25 nM miRNA mimics or control, and neurite lengths were quantified as above after 5 days. (F-G) Effects of miR-506-3p (F) and miR-124-3p (G) mimics on expression of differentiation markers in multiple cell lines. *, p<0.05; **, p<0.01; ***, p<0.001; **** , p<0.0001.\nDetection and Quantification of Neurite Outgrowth. Cells were plated and treated in 96-well plates. […] The neurite lengths associated with each treatment were calculated using the neurite definition defined for each specific cell line using the NeuroTrack system (Essen BioScience)."}, "[2]": {"tested_on": "3′UTR of CDK4", "assay": "Luciferase Reporter Assay, CDK4 3'UTR", "type": "cell-based, human", "conditions": "BE(2)-C cells, 25 nM mimic, 72 h", "source_text": "Luciferase Reporter Assay. The segments of the wildtype 3′ UTRs for CDK4 and STAT3 containing the predicted target sites of miR-506-3p and miR-124-3p were cloned from human genomic DNA. Mutant constructs were generated with the seed target site (GUGCCUU (SEQ ID NO:4)) replaced by CACGGUU (SEQ ID NO:5). The 3′ UTRs were cloned downstream of the firefly luciferase coding sequences into the pmirGLO dual-luciferase reporter (Promega), a vector containing both firefly and Renilla luciferase cDNAs under the control of separate promoter/terminator systems. The firefly luciferase was used as the primary reporter for miRNA regulation of the 3′ UTR. The Renilla luciferase is an internal control for normalization. BE(2)-C cells were co-transfected with luciferase reporters (0.8 ng/μl) and miRNA mimics or control oligonucleotide (oligo) (25 nM). Luciferase activities were measured after 72 h using the Dual-Glo Luciferase Assay System (Promega). Firefly luciferase activity was normalized to Renilla luciferase activity to evaluate the effect of the miRNAs."}, "[3]": {"tested_on": "BE(2)-C cells", "assay": "High-content screen: detection and quantification of neurite outgrowth", "type": "cell-based", "design": "key: neurite length normalized to the mean of its plate", "conditions": "25 nM miRNA mimic, 4 days transfection, normalized to plate mean", "procedure": "FIG. 2A-2C. HCS screening of miRNA mimics identifies miRNAs that induce neurite outgrowth in BE(2)-C cells. (A-B) 2,500 cells were reverse-transfected with 25 nM miRNA mimics in 96-well plates. After 4 days transfection, relative neurite lengths were quantified as above. (A) The distribution of post-normalized neurite length measurements (grey histogram) for individual miRNA mimics from the screen and the fitted Gamma distribution curve (␣=3.27, ┘=0.444) (B) Correlation between two independent neurite length measurements for one library plate. Cells were transfected with 25 nM mimics in two independent 96-well plates. Normalized neurite lengths were measured as above. Correlation of neurite length between the two plates was analyzed using two-tailed Pearson Correlation with p<0.05 considered significant. (C) The distribution of the neurite lengths for untreated BE(2)-C cells. 2,500 Cells were plated into each well in 96 well plates. After 4 days of culture, neurite lengths were analyzed as above. Shown are the neurite length distribution histogram, the empirical density curve, and the fitted Gamma distribution curve (␣=30.23, ␣=0.033).\nDetection and Quantification of Neurite Outgrowth. Cells were plated and treated in 96-well plates. For detecting neurite outgrowth, cells were placed into ZOOM IncuCyte Imaging System (Essen BioScience) and cell images were taken under 20× microscopic magnification. For detecting neurite outgrowth in a time-dependent manner, cell images were taken every 6 h. The neurite lengths associated with each treatment were calculated using the neurite definition defined for each specific cell line using the NeuroTrack system (Essen BioScience).\nAnalysis of HCS Data. The relative neurite length associated with cells in each well on the screen plates was determined as above. In order to allow for plate-to-plate comparison, neurite length associated with each well in each plate was first internally normalized to the mean of the corresponding plate, and multiple screen plates were then aggregated together to generate the neurite length distribution. The data were then further analyzed to determine the distribution of the unaffected cells as described below, and to identify differentiation-inducing miRNA mimics.\nStatistical Analysis. For HCS, p-value for neurite length associated with each miRNA mimic was evaluated by assuming the distribution of neurite lengths follows Gamma distribution, and false Discovery Rate (FDR) was determined by Benjamini-Hochberg correction method for multiple tests (Benjamin, Journal of the Royal Statistical Society Series B (Methodological), 1995, 57(1):12). […] For all other conditions, the statistical significance for each treatment was determined using t-test by comparing the treatment group with control, with p<0.05 considered statistically significant."}, "[4]": {"tested_on": "CDK4", "assay": "Western blot of endogenous CDK4 protein", "type": "cell-based", "conditions": "miRNA overexpression, 4 days", "source_text": "FIG. 7A-7F. Validation of CDK4 and STAT3 as direct targets that mediate the differentiation-inducing function of miR-506-3p and miR-124-3p. (A) The predicted interactions between miR-506-3p/miR-124-3p and the target sites in the 3′UTR of STAT3 and CDK4 rnRNAs. The seed sequences are underlined. (SEQ ID NOS: 1, 2, 18, 19, 20, 21) (B-C) Validation of the target sites of miR-506-3p and miR-124-3p in the 3′UTRs of (B) CDK4 and (C) STAT3 by luciferase reporter assay. BE(2)-C cells were co-transfected with the indicated vectors and miRNA mimics or control oligo. After 72 h of transfection, cells were lysed and luciferase activity was measured. […] Cells were transfected as above for 4 days, and protein levels were measured by Western blots. […] Cells were transfected with the indicated oligos, and neurite lengths were measured as above after 4 days transfection. Shown are representative cell images analyzed to define neurites and cell body areas (G) and quantification of neurite length under the indicated treatment conditions (H). **, p<0.01; *** , p<0.001; ****, p<0.0001.\nWestern Blots. […] Protein concentration was determined using the Pierce BCA assay (Thermo Fisher Scientific). […] Bound antibodies were detected with secondary antibodies conjugated with horseradish peroxidase (HRP) visualized by enhanced chemiluminescent (ECL) substrate (Pierce)."}}}
{"substance": "hsa-miR-506-3p: miRNA mimic (Dharmacon), mature sequence UAAGGCACCCUUCUGAGUAGA (SEQ ID NO: 1) (UAAGGCACCCUUCUGAGUAGA(1); as printed in the source, key not given here)", "values": [{"measurement": "Effect on neurite growth in multiple cell lines", "setting": "[1]", "result": "most potent effect on neurite growth"}, {"measurement": "Target site in the 3′UTR of CDK4 by luciferase reporter", "setting": "[2]", "result": "validated"}, {"measurement": "Neurite length (mean ± SD)", "setting": "[3]", "result": "10.04 ± 3.41"}, {"measurement": "Endogenous CDK4 protein expression level", "setting": "[4]", "result": "down-regulate"}]}
